| melting point | Structure (SMILES) |
| --- | --- |
| 186 to 187 °C | COC(=O)c1ccn2nc(-c3ccccc3)c(-c3ccc(=O)n(C(C)C)n3)c2c1 [Example 69, methyl 3-(3-oxo-2-isopropyl-2,3-dihydropyridazin-6-yl)-2-phenylpyrazolo[1,5-a]pyridine-5-carboxylate] |
| 202 to 203 °C | CC(C)n1nc(-c2c(-c3ccccc3)nn3ccc(C#N)cc23)ccc1=O [Example 71, 3-(3-oxo-2-isopropyl-2,3-dihydropyridazin-6-yl)-2-phenylpyrazolo[1,5-a]pyridine-5-carbonitrile] |
| 189 to 190 °C | CC(C)n1nc(-c2c(-c3ccccc3)nn3ccc(C(=O)N4CCCC4)cc23)ccc1=O [Example 73, 5-(1-pyrrolidinylcarbonyl)-3-(3-oxo-2-isopropyl-2,3-dihydropyridazin-6-yl)-2-phenylpyrazolo[1,5-a]pyridine] |
| 157 to 158 °C | CC(C)n1nc(-c2c(-c3ccccc3)nn3ccc(C(=O)NCCN(C)C)cc23)ccc1=O [Example 76, N-[2-(Dimethylamino)ethyl]-3-(3-oxo-2-isopropyl-2,3-dihydropyridazin-6-yl)-2-phenylpyrazolo[1,5-a]pyridine-5-carboxamide] |
| 149 to 150 °C | CCOCCNC(=O)c1ccn2nc(-c3ccccc3)c(-c3ccc(=O)n(C(C)C)n3)c2c1 [Example 78, N-(2-Ethoxyethyl)-3-(3-oxo-2-isopropyl-2,3-dihydropyridazin-6-yl)-2-phenylpyrazolo[1,5-a]pyridine-5-carboxamide] |
| 200 to 201 °C | CC(C)n1nc(-c2c(-c3ccccc3)nn3ccc(C(=O)NC(C)(C)C)cc23)ccc1=O [Example 83, N-(tert-Butyl)-3-(3-oxo-2-isopropyl-2,3-dihydropyridazin-6-yl)-2-phenylpyrazolo[1,5-a]pyridine-5-carboxamide] |
| 157 to 158 °C | CCN(CC)C(=O)c1ccn2nc(-c3ccccc3)c(-c3ccc(=O)n(C(C)C)n3)c2c1 [Example 85, N,N-Diethyl-3-(3-oxo-2-isopropyl-2,3-dihydropyridazin-6-yl)-2-phenylpyrazolo[1,5-a]pyridine-5-carboxamide] |
| 124 to 125 °C | CC(C)OCCNC(=O)c1ccn2nc(-c3ccccc3)c(-c3ccc(=O)n(C(C)C)n3)c2c1 [Example 86, N-(2-Isopropoxyethyl)-3-(3-oxo-2-isopropyl-2,3-dihydropyridazin-6-yl)-2-phenylpyrazolo[1,5-a]pyridine-5-carboxamide] |
| 192 to 193 °C | CC(C)n1nc(-c2c(-c3ccccc3)nn3ccc(C(=O)NCc4cccnc4)cc23)ccc1=O [Example 87, N-(3-Pyridinylmethyl)-3-(3-oxo-2-isopropyl-2,3-dihydropyridazin-6-yl)-2-phenylpyrazolo[1,5-a]pyridine-5-carboxamide] |
| 225 to 226 °C | CNC(=O)c1ccn2nc(-c3ccccc3)c(-c3ccc(=O)n(C(C)C)n3)c2c1 [Example 88, N-Methyl-3-(3-oxo-2-isopropyl-2,3-dihydropyridazin-6-yl)-2-phenylpyrazolo[1,5-a]pyridine-5-carboxamide] |
| 185 to 186 °C | CC(C)n1nc(-c2c(-c3ccccc3)nn3ccc(C(=O)N4CCCCC4)cc23)ccc1=O [Example 89, 5-(1-Piperidinylcarbonyl)-3-(3-oxo-2-isopropyl-2,3-dihydropyridazin-6-yl)-2-phenylpyrazolo[1,5-a]pyridine] |
| 156 to 157 °C | CC(C)n1nc(-c2c(-c3ccccc3)nn3ccc(C(=O)NCCOc4ccccc4)cc23)ccc1=O [Example 92, N-(2-Phenoxyethyl)-3-(3-oxo-2-isopropyl-2,3-dihydropyridazin-6-yl)-2-phenylpyrazolo[1,5-a]pyridine-5-carboxamide] |
| 230 to 232 °C | CC(C)NC(=O)c1ccn2nc(-c3ccccc3)c(-c3ccc(=O)n(C(C)C)n3)c2c1 [Example 95, N-Isopropyl-3-(3-oxo-2-isopropyl-2,3-dihydropyridazin-6-yl)-2-phenylpyrazolo[1,5-a]pyridine-5-carboxamide] |

The remaining lines, values behind:

| Structure (SMILES) | melting point |
| --- | --- |
| CC(C)n1nc(-c2c(-c3ccccc3)nn3ccc(C(=O)N4CCC(c5ccccc5)CC4)cc23)ccc1=O [Example 84, 5-[(4-Phenyl-1-piperidinyl)carbonyl]-3-(3-oxo-2-isopropyl-2,3-dihydropyridazin-6-yl)-2-phenylpyrazolo[1,5-a]-pyridine] | 184 to 185 °C |
| CC(C)n1nc(-c2c(-c3ccccc3)nn3ccc(N4CCOCC4)cc23)ccc1=O [Example 98, 5-(4-Morpholinyl)-3-(3-oxo-2-isopropyl-2,3-dihydropyridazin-6-yl)-2-phenylpyrazolo[1,5-a]pyridine] | 182 to 187 °C |
| CC(C)n1nc(-c2c(-c3ccccc3)nn3ccc(N4CCN(c5ccccc5)CC4)cc23)ccc1=O [Example 99, 5-(4-Phenyl-1-piperazinyl)-3-(3-oxo-2-isopropyl-2,3-dihydropyridazin-6-yl)-2-phenylpyrazolo[1,5-a]pyridine] | > 240 °C |
| CC(C)n1nc(-c2c(-c3ccccc3)nn3ccc(N4C[C@@H](C)O[C@@H](C)C4)cc23)ccc1=O [Example 100, 5-(cis-2,6-Dimethyl-4-morpholinyl)-3-(3-oxo-2-isopropyl-2,3-dihydropyridazin-6-yl)-2-phenylpyrazolo[1,5-a]-pyridine] | 176 to 177 °C |
| CC(C)n1nc(-c2c(-c3ccccc3)nn3ccc(N4CCC(O)CC4)cc23)ccc1=O [Example 101, 5-(4-Hydroxy-1-piperidinyl)-3-(3-oxo-2-isopropyl-2,3-dihydropyridazin-6-yl)-2-phenylpyrazolo[1,5-a]pyridine] | 213 to 215 °C |
| CC(C)n1nc(-c2c(-c3ccccc3)nn3ccc(N4CCN(c5ccccn5)CC4)cc23)ccc1=O [Example 102, 5-[4-(2-Pyridinyl)-1-piperazinyl]-3-(3-oxo-2-isopropyl-2,3-dihydropyridazin-6-yl)-2-phenylpyrazolo[1,5-a]pyridine] | 221 to 222 °C |
| CC(C)n1nc(-c2c(-c3ccccc3)nn3ccc(N4CCN(C(=O)OC(C)(C)C)CC4)cc23)ccc1=O [Example 104, tert-Butyl 4-[3-(3-oxo-2-isopropyl-2,3-dihydropyridazin-6-yl)-2-phenylpyrazolo[1,5-a]pyridin-5-yl]-1-piperazinecarboxylate] | 163 to 164 °C |
| CC(C)n1nc(-c2c(-c3ccccc3)nn3ccc(N4CCN(Cc5ccccc5)CC4)cc23)ccc1=O [Example 105, 5-(4-Benzyl-1-piperazinyl)-3-(3-oxo-2-isopropyl-2,3-dihydropyridazin-6-yl)-2-phenylpyrazolo[1,5-a]pyridine] | 136 to 138 °C |
| COC1CCN(c2ccn3nc(-c4ccccc4)c(-c4ccc(=O)n(C(C)C)n4)c3c2)CC1 [Example 106, 5-(4-methoxy-1-piperidinyl)-3-(3-oxo-2-isopropyl-2,3-dihydropyridazin-6-yl)-2-phenylpyrazolo[1,5-a]pyridine] | 177 to 178 °C |
| CC(C)n1nc(-c2c(-c3ccccc3)nn3ccc(N4CCNCC4)cc23)ccc1=O [Example 107, 5-(1-piperazinyl)-3-(3-oxo-2-isopropyl-2,3-dihydropyridazin-6-yl)-2-phenylpyrazolo[1,5-a]pyridine] | 203 to 204 °C |
| COC(=O)N1CCN(c2ccn3nc(-c4ccccc4)c(-c4ccc(=O)n(C(C)C)n4)c3c2)CC1 [Example 108, methyl 4-[3-(3-oxo-2-isopropyl-2,3-dihydropyridazin-6-yl)-2-phenylpyrazolo[1,5-a]pyridin-5-yl]-1-piperazinecarboxylate] | 206 to 207 °C |
| CC(C)n1nc(-c2c(-c3ccccc3)nn3ccc(N4CCN(C(=O)N(C)C)CC4)cc23)ccc1=O [Example 109, 4-[3-(3-oxo-2-isopropyl-2,3-dihydropyridazin-6-yl)-2-phenylpyrazolo[1,5-a]pyridin-5-yl]-N,N-dimethyl-1-piperazinecarboxamide] | 160 to 161 °C |
| CC(C)n1nc(-c2c(-c3ccccc3)nn3ccc(N4CCN(S(C)(=O)=O)CC4)cc23)ccc1=O [Example 110, 5-[4-(Methylsulfonyl)-1-piperazinyl]-3-(3-oxo-2-isopropyl-2,3-dihydropyridazin-6-yl)-2-phenylpyrazolo[1,5-a]pyridine] | 219 to 220 °C |
| CC(C)n1nc(-c2c(-c3ccccc3)nn3ccc(N4CCN(S(=O)(=O)c5ccccc5)CC4)cc23)ccc1=O [Example 111, 5-[4-(Phenylsulfonyl)-1-piperazinyl]-3-(3-oxo-2-isopropyl-2,3-dihydropyridazin-6-yl)-2-phenylpyrazolo[1,5-a]pyridine] | 219 to 220 °C |
| CC(C)n1nc(-c2c(-c3ccccc3)nn3ccc(N4CCN(C(=O)c5ccccc5)CC4)cc23)ccc1=O [Example 112, 5-(4-Benzoyl-1-piperazinyl)-3-(3-oxo-2-isopropyl-2,3-dihydropyridazin-6-yl)-2-phenylpyrazolo[1,5-a]pyridine] | 124 to 126 °C |
| CC(=O)N1CCN(c2ccn3nc(-c4ccccc4)c(-c4ccc(=O)n(C(C)C)n4)c3c2)CC1 [Example 113, 5-(4-Acetyl-1-piperazinyl)-3-(3-oxo-2-isopropyl-2,3-dihydropyridazin-6-yl)-2-phenylpyrazolo[1,5-a]pyridine] | 148 to 149 °C |
| CC(C)n1nc(-c2c(-c3ccccc3)nn3ccc(N4CCN(C(=O)CN(C)C)CC4)cc23)ccc1=O [Example 114, 5-{4-[(dimethylamino)acetyl]-1-piperazinyl}-3-(3-oxo-2-isopropyl-2,3-dihydropyridazin-6-yl)-2-phenylpyrazolo[1,5-a]pyridine] | 129 to 130 °C |
| COc1ccn2nc(-c3ccccc3)c(-c3ccc(=O)n(C)n3)c2c1 [Example 115, 5-Methoxy-3-(3-oxo-2-methyl-2,3-dihydropyridazin-6-yl)-2-phenylpyrazolo[1,5-a]pyridine] | 183 to 184 °C |
| CCn1nc(-c2c(-c3ccccc3)nn3ccc(OC)cc23)ccc1=O [Example 116, 5-Methoxy-3-(3-oxo-2-ethyl-2,3-dihydropyridazin-6-yl)-2-phenylpyrazolo[1,5-a]pyridine] | 148 to 149 °C |
| CCCn1nc(-c2c(-c3ccccc3)nn3ccc(OC)cc23)ccc1=O [Example 117, 5-Methoxy-3-(3-oxo-2-propyl-2,3-dihydropyridazin-6-yl)-2-phenylpyrazolo[1,5-a]pyridine] | 174 °C |
